Experimental data as given in patent US10286000B2, “Retinoid X receptor-gamma agonists and retinoid X receptor-alpha antagonists for treatment of cancer” (St. Jude Children's Research Hospital, Inc., priority 2013, dated 2019).

Columns and labels:
[1] = tested on: spontaneous intestinal polyps; assay: C57BL/6J-ApcMin/J mouse model; type: in vivo, C57BL/6J-Apc^Min/J mice
Description: The number of spontaneous intestinal polyps (arrows) was counted and compared between the two groups of mice at the end of the 3 month period. (B) The difference in adenoma growth (arrows) between the PBS- and SPIR-treated mouse groups was confirmed in intestine tissue sections. […] Total RNA were collected for cDNA preparation and the expressions of the mouse NKG2D ligands Raet1 family were analyzed by qRT-PCR. […] The number of spontaneous intestinal polyps (arrows) was counted and compared between the two groups of mice. * P≤0.05, ** P≤0.01, *** P<0.005.
By examining the intestines collected from different age groups of C57BL/6J-APC^Min/J mice (n=2-3 per group), it was discovered that none of the 8-week-old mice developed intestinal polyps. The mice started to develop polyps when they were 10 to 12-week-old and there were 15-25 intestinal adenomas established in the intestinal tracts of all the 4-month-old mice. Most of the mice died at 5 to 6 months with 25-30 adenomas in their intestines. […] The number of intestinal polyps was counted, and the intestine was fixed in 10% neutral buffered formalin, paraffin embedded, sectioned, and stained with hematoxylin and eosin. Intestine sections at 100-μm intervals were collected for the observation of neoplasia without knowledge of treatment assignment.

[2] = tested on: ULBP2 surface expression in 293T cells; assay: high-throughput screening of 5600 bioactive compounds, ULBP2 surface expression; type: cell-based, human
HCT116 cells = assay: cell-cycle analysis (propidium iodide, EdU); type: cell-based, human; details: HCT116, 24 h
[3] = tested on: ATM/ATR checkpoint pathway in HCT116 cells; assay: Western blot of ATM/ATR checkpoint pathway; type: cell-based, human
Description: Total cell lysates were collected at various time points for Western blot analysis to detect (A) ATM (Ser1981) and ATR (Ser428) phosphorylation and (B) ULBP2 expression. Data shown are representative of three independent experiments. […] Total cell lysates were prepared at various time points (with the same total protein concentration as determined by BCA protein assay) (0 h to 24 h) for phospho-Chk1 by ELISA. Data were expressed as fold change relative to the degree of Chk1 phosphorylation at 0 h (n=3). […] Data are representative of three independent experiments. […] Data are representative of three independent experiments. […] Data shown are representative of three independent experiments. (G) The knockdown efficiencies of various siRNAs in HCT116 cells were evaluated by Western blot analysis. Results are representative of three independent experiments. […] Data shown are representative of three independent experiments. * P<0.05, ** P<0.01, *** P<0.001.

[4] = tested on: ULBP2 in MR-knockdown 293T cells; assay: ULBP2 surface expression in MR-knockdown 293T cells; type: cell-based, human
Description: (A) MR mRNA expression was determined by qRT-PCR in various cell lines (n=3). (B) MR protein expression was determined by Western blot analysis. Data shown are representative of two independent experiments. (C) MR-knockdown 293T cells were generated by lentiviral transduction with an shRNA vector (pLKO.1) targeting MR. The relative mRNA expression of MR was analyzed by qRT-PCR (n=3). […] Data shown are representative of two independent experiments. * P<0.0001.

[5] = tested on: Chk1 (Ser-317 phosphorylation); assay: Phospho-Chk1 ELISA; type: cell-based, human; details: HCT116, 0 h to 24 h
Description: Ser-317 phosphorylation of Chk1 was determined by using the PathScan phosphor-Chk1 (Ser317) Sandwich ELISA kit (Cell Signaling). Data were normalized to the total Chk1 levels obtained from an ELISA with anti-Chk1 (total) used as the detection antibody.

HCT116 xenograft = HCT116 xenograft model in NSG mice (bioluminescence imaging); type: in vivo
Description: (A) 1×10^6 luciferase-expressing HCT116 cells, alone or with 2×10^7 NKL cells, were subcutaneously injected into 8- to 10-week-old NSG mice (n=4). […] HCT116 xenograft growth was analyzed by performing bioluminescence imaging on day 15. (B) 1×10^6 HCT116 cells were subcutaneously injected into 8- to 10-week-old NSG mice. […] Tumor sections were prepared for ULBP2 immunohistochemical staining on day 15. (C) NKG2D expression on the cell surface of YT-INDY and YT-INDY-NKG2D cells was analyzed by flow cytometry. […] (D) 1×10^6 luciferase-expressing HCT116 cells were subcutaneously injected into 8- to 10-week-old NSG mice with either 1×10^6 YT-INDY or YT-INDY-NKG2D cells (n=8 per group). […] HCT116 xenograft growth was analyzed by performing bioluminescence imaging on day 15. (E) MICA-B and ULBP1-3 expressions on the cell surface of HCT116 or HCT116-ΔNKG2DLs cells were analyzed by flow cytometry. […] (F) 1×10^6 luciferase-expressing HCT116 or HCT116-ΔNKG2DLs cells were subcutaneously injected into 8- to 10-week-old NSG mice with 1×10^6 YT-INDY-NKG2D cells (n=8 per group). […] HCT116 xenograft growth was analyzed by performing bioluminescence imaging on day 10. […] 1×10^6 each of luciferase-expressing HCT116 cells and YT-INDY-NKG2D were injected subcutaneously into the mice on day 0. HCT116 xenograft growth was analyzed by performing bioluminescence imaging on day 3. * P<0.05, ** P<0.01, *** P<0.005, **** P<0.0005.
Luciferase-expressing HCT116 and HT29 cells were generated by lentiviral transduction of the cells with a CMV promoter-driven luciferase expression construct engineered from the pLL3.7 vector. […] Bioluminescence imaging was performed in a Xenogen imaging system to monitor tumor growth and the data were analyzed using Living Image software (Caliper LifeSciences). For the lung metastasis model using HT29 cells, lungs were harvested for bioluminescence imaging and then fixed in 10% neutral buffered formalin, paraffin embedded, sectioned, and stained with hematoxylin and eosin. A total of six lung sections at 100-μm intervals were collected for the observation of pulmonary nodules. For the hepatic metastasis model, 0.5×10^6 of luciferase-expressing HCT116 cells were intrasplenically implanted into 6-8 week-old NSG mice.

normal human lymphocytes = assay: normal human lymphocytes: viability and NKG2DL expression; type: cell-based

CC(=O)S[C@@H]1CC2=CC(=O)CC[C@]2(C)[C@H]2CC[C@@]3(C)[C@@H](CC[C@@]34CCC(=O)O4)[C@H]12 [SPIR, spironolactone]
number of polyps (therapy) ([1]; 4-month-old mice, twice a week for 3 weeks, vs untreated): significant reduction of the number of polyps | number of polyps formed (prevention) ([1]; 8-week-old mice, twice a week for 3 months, vs untreated): significantly less | expression of Raet1 ligand in the polyps ([1]; qRT-PCR): significantly increased the expression of the Raet1 ligand | surface expression of ULBP2 [2]: significantly increased | cell cycle (HCT116 cells): S-phase cell-cycle arrest | ATM and ATR phosphorylation ([3]; HCT116, 56 μM, time-dependent): induces ATM and ATR phosphorylation | phosphorylated Chk2 and H2A.X ([3]; HCT116, 24 h): an increase was also detected | upregulation of ULBP2 upon SPIR treatment with shRNA knockdown of MR [4]: did not affect the upregulation of ULBP2 | Ser-317 phosphorylation of Chk1 (P-Chk1) [5]: time-dependent increase | tumor growth in the presence of YT-INDY-NKG2D (HCT116 xenograft; 1.25 mg/mouse i.p.): strongly suppressed the tumor growth | tumor growth, mice bearing NKL cells (HCT116 xenograft; HCT116 plus NKL cells, 1.25 mg/mouse i.p. twice a week for 2 weeks): suppressed tumor growth considerably | tumor growth, SPIR alone (HCT116 xenograft; HCT116 without NKL cells, 1.25 mg/mouse i.p. twice a week for 2 weeks): did not affect tumor growth | HCT116 xenograft growth in YT-INDY-bearing mice (HCT116 xenograft; NKG2D-negative NK cell line): did not reduce the HCT116 xenograft growth | tumor susceptibility to NK cell killing triggered by SPIR, HCT116-ΔNKG2DLs (HCT116 xenograft; NKG2DL-deficient HCT116 vs HCT116, YT-INDY-NKG2D): significantly reduced tumor susceptibility to NK cell killing | ULBP2 expression in the HCT116 xenografts (HCT116 xenograft; immunohistochemical staining day 15): significantly enhanced ULBP2 expression | tumor development after pretreatment (HCT116 xenograft; pretreating twice a week for 2 weeks before HCT116 and YT-INDY-NKG2D implantation): greatly inhibited tumor development | viability or NKG2DL expression of normal human lymphocytes (normal human lymphocytes): no detrimental effect
